{"source": "patent US7683055B2", "about": "“Lanthionine-related compounds for the treatment of inflammatory diseases” (Oklahoma Medical Research Foundation, priority 2006, dated 2010)", "key": {"RAW 264.7 macrophages": {"system": "RAW 264.7 macrophages", "assay": "LPS-stimulated nitrite production in RAW 264.7 macrophages", "format": "cell-based", "conditions": "24-48 h", "experimental": "Primary astrocytes were cultured from neonatal R6/2 transgenic mouse pups (“Htt+”) which are the standard murine model for Huntington's disease (animals commercially obtained from Jackson Labs) or nontransgenic littermates. For RAW cell studies, RAW264.7 macrophages were obtained commercially from American Type Culture Collection. RAW 264.7 macrophages were grown in DMEM plus 10% FBS and 1% Pen/Strep. Cells were maintained in culture according to published methods. Cells were treated with +/−[…] bacterial lipopolysaccharide serotype 0127:B8 (Sigma Chemical)+/−various concentrations of (R)-LKE1 for 24-48 h. (R)-LKE1 was added 30 minutes prior to LPS challenge. Nitrite was measured in the cell culture medium using the Griess diazotization assay. Cells were lysed and Western blots performed for protein expression or in other experiments for ribonuclease protection assays."}, "human PB monocytes": {"system": "human PB monocytes", "assay": "intracellular TNFα in human peripheral blood monocytes by flow cytometry", "format": "cell-based", "text": "Identification of TNFα positive monocytes in peripheral blood by flow cytometry: PB monocytes expressing TNF in response to LPS or PG can be identified and counted using flow cytometry with fluorescent antibodies to stain TNFα. To identify the percentage of monocytes expressing TNFα, PB was stimulated with LPS or PG, stained for surface markers to distinguish monocytes from other leukocytes, and stained for intracellular TNFα to identify monocytes expressing TNFα. The percentage of monocytes positive for TNFα was compared among samples stimulated with LPS, PG, with and without pretreatment with (R)-LKE1, and non-stimulated samples.\nThe fluorescent antibodies used to identify monocytes surface markers were anti-human CD14-phycoerythrin (PE) and andtiCD16b-fluorescein isothyocyanate (FITC), based on staining intensity for each marker. Monocytes are positive for CD14 and negative for CD16b. This method of separating monocytes from neutrophils was confirmed by sorting cells based on CD14/CD16b intensity, preparing slides, staining with May-Grunwald Giemsa and confirming by morphology.\nFor analysis of CD14 positive, CD16b negative cells we used dot plots. We first excluded lymphocytes from the analysis by their forward scatter (FSC) and side scatter (SSC) properties, drawing a monocyte/neutrophil gate to exclude lymphocytes (not shown). We then identified CD14+, (y-axis) CD16b− (x-axis) cells by comparison with an unstained sample.\nA third dye, PE-Cye7 was used for intracellular cytokine staining of TNFα. The TNFα positive monocytes were identified on a second dot plot of SSC vs. TNFα PE-Cye7 for monocytes only. Cells were counted as positive for TNFα expression if the intensity of PE-Cye7 was greater than in the non-stimulated control. The percent of TNFα positive monocytes was calculated using number positive/total number of monocytes.\nPB, heparinized, was diluted 1:3 with DMEM. Diluted blood was placed in 1.0 ml aliquots into wells of a non tissue culture plate. PB was pre-incubated at 37° C. for one hour with LKE (1 mM) or the diluent DMSO (10 μl). […]"}, "EOC-20 microglial cells": {"system": "EOC-20 microglial cells", "assay": "PGE2 production in TNFα+IFNγ-stimulated EOC-20 microglial cells", "format": "cell-based, mouse", "conditions": "stimulated by TNFα+IFNγ"}, "C6 glioma cells": {"system": "C6 glioma cells", "assay": "C6 glioma cells implanted in rat neocortex", "format": "in vivo, Sprague-Dawley rats", "conditions": "100 mg/day, 7 days/week from implantation", "experimental": "FIG. 16. […] 100,000 C6 glioma cells were implanted in the neocortex of adult male Sprague-Dawley rats. The test group was administered (R)-LKE1 in saline 100 mg/day at each of 7 days/week starting the day of implantation."}, "NSC-34 cells": {"system": "NSC-34 cells", "assay": "NSC-34 viability after glutamate and/or Ca2+ exposure", "format": "cell-based, mouse", "conditions": "1 mM L-glutamate, 1 mM CaCl2 or both, four days", "experimental": "NSC-34 motor neuron x neuroblastoma cells were treated with 1 mM L-glutamate, 1 mM CaCl2, or both for four days. (R)-LKE1 was added at t=0 and at t=48 hours, at the indicated concentrations. At the end of four days (t=96 hours) cell viability was assayed by measuring tetrazolium reduction rates using a commercially available kit (Promega)."}}, "data": [{"smiles": "CCOC(=O)[C@@H]1CSCC(C(=O)O)=N1", "note": "[(R)-LKE1]", "values": [{"measurement": "inhibition of LPS-stimulated nitric oxide production", "setting": "RAW 264.7 macrophages", "value": "inhibited LPS stimulated nitric oxide production"}, {"measurement": "percent monocytes staining positively for TNFα", "setting": "human PB monocytes; 1 mM pre-incubation, PG 10 ug/ml", "value": 0.76, "unit": "%"}, {"measurement": "percent monocytes staining positively for TNFα", "setting": "human PB monocytes; 1 mM pre-incubation, Ultra Pure LPS 1 μg/ml", "value": 25.9, "unit": "%"}, {"measurement": "percent monocytes staining positively for TNFα", "setting": "human PB monocytes; 1 mM, no stimulus", "value": 0.96, "unit": "%"}, {"measurement": "suppression of PGE2 production", "setting": "EOC-20 microglial cells", "value": "does not to suppress prostaglandin E2 (PGE2) production"}, {"measurement": "tumor cell proliferation", "setting": "C6 glioma cells", "value": "inhibits tumor cell proliferation"}, {"measurement": "viability of cells exposed to glutamate and/or Ca2+", "setting": "NSC-34 cells", "value": "increases the viability"}]}]}
